# Results from publication PMC6730478, “Discovery of N-(2-Aminophenyl)-4-(bis(2-chloroethyl)amino)Benzamide as a Potent Histone Deacetylase Inhibitor” (Frontiers in Pharmacology, 2019).
# Columns and labels:
# [1] = target: T1, HDAC1 (Homo sapiens, UniProt Q13547); experiment: In vitro HDAC inhibitory assay (fluorogenic substrate); format: biochemical
# T1 construct: purchased BPS Bioscience
# Procedure: (§1) All of the HDAC enzymes were bought from BPS Bioscience. In vitro HDAC inhibition assays were conducted as previously described. Briefly, 20 μl of recombinant HDAC enzyme solution (HDAC1−9) was mixed with various concentrations of tested compound (20 μl). The mixture was incubated at 30°C for 1 h (for the time-dependent assay, the mixture was incubated for 15, 30, 60, and 90 min, respectively), and then 10 μl of fluorogenic substrate (Boc-Lys (acetyl)-AMC (3 mM) for HDAC1, 2, 3, and 6, Boc-Lys (trifluoroacetyl)-AMC (3 mM) for HDAC 4, 7, 8, and 9) was added. After incubation at 30°C for 2 h, the catalytic reaction was stopped by addition of 10 μl of developer containing trypsin and trichostatin A (TSA). After 30 min, fluorescence intensity was measured using a microplate reader at excitation and emission wavelengths of 360 and 460 nm, respectively. The inhibition ratios were calculated from the fluorescence intensity readings of tested wells relative to those of control wells, and the IC50 curves and values were determined by GraphPad Prism 6.0 software.
# [2] = target: T2, HDAC7 (Homo sapiens, UniProt Q8WUI4); experiment: as above; format: biochemical; details: n ≥ 2, SD <10% of the mean; read-out: Enzyme inhibitory activity IC50, HDAC7
# T2 construct: purchased BPS Bioscience
# Procedure: as §1
# [3] = test system: MDA-MB-468 cells; experiment: MTT antiproliferative assay; format: cell-based; details: Homo sapiens, MDA-MB-468, 48 h, read-out: Antiproliferative activity IC50, MDA-MB-468
# Procedure: (§2) The stock solutions of tested compounds were diluted with culture medium. […] MTT working solution of 20 µl (5 mg/ml) was then added to each well and incubated for another 4 h. At the end of incubation, the medium were carefully removed, and 200 µl of DMSO was added. The optical density at 490 and 630 nm was then measured with a microplate reader (Model 680, Bio-Rad). […] The IC50 values were calculated with Origin 7.5 software, and standard deviations of the IC50 values were obtained from at least three independent experiments.
# [4] = test system: Colo205 cells; experiment: MTT antiproliferative assay; format: cell-based; details: Homo sapiens, COLO 205, 48 h, read-out: Antiproliferative activity IC50, Colo205
# Procedure: as §2
# [5] = test system: PNAC-1 cells; experiment: MTT antiproliferative assay; format: cell-based; details: 48 h, read-out: Antiproliferative activity IC50, PNAC-1
# Procedure: as §2
# [6] = test system: U937 cells; experiment: MTT antiproliferative assay; format: cell-based; details: Homo sapiens, U-937, 48 h, read-out: Antiproliferative activity IC50, U937
# Procedure: as §2
# [7] = test system: HepG2 cells; experiment: MTT antiproliferative assay; format: cell-based
# Procedure: as §2
# [8] = test system: LoVo cells; experiment: MTT antiproliferative assay; format: cell-based; details: Homo sapiens, 48 h, read-out: Antiproliferative activity IC50, LoVo
# Procedure: as §2
# [9] = test system: MDA-MB-231 cells; experiment: MTT antiproliferative assay; format: cell-based; details: Homo sapiens, MDA-MB-231, 48 h, read-out: Antiproliferative activity IC50, MDA-MB-231
# Procedure: as §2
# [10] = test system: Calu-3 cells; experiment: MTT antiproliferative assay; format: cell-based; details: Homo sapiens, Calu-3, 48 h, read-out: Antiproliferative activity IC50, Calu-3
# Procedure: as §2
# [11] = test system: MKN45 cells; experiment: MTT antiproliferative assay; format: cell-based; details: Homo sapiens, MKN-45, 48 h, read-out: Antiproliferative activity IC50, MKN45
# Procedure: as §2
# [12] = test system: SKOV3 cells; experiment: MTT antiproliferative assay; format: cell-based; details: Homo sapiens, SK-OV-3, 48 h, read-out: Antiproliferative activity IC50, SKOV3
# Procedure: as §2
# [13] = test system: A549 cells; experiment: MTT antiproliferative assay; format: cell-based; details: Homo sapiens, A549, 48 h, read-out: Antiproliferative activity IC50, A549
# Procedure: as §2
# [14] = test system: MCF-7 cells; experiment: MTT antiproliferative assay; format: cell-based; details: Homo sapiens, MCF7, 48 h, read-out: Antiproliferative activity IC50, MCF-7
# Procedure: as §2
# [15] = test system: A2780 cells; experiment: MTT antiproliferative assay; format: cell-based; details: for IC50: Homo sapiens, A2780, 48 h, read-out: Antiproliferative activity IC50, A2780
# Procedure: . The stock solutions of tested compounds were diluted with culture medium. The cells were seeded in 96-well plates at a density 5 × 10^3 cells per well and incubated until confluency of 90–95%, and then each well was treated with 100 µl of medium containing the desired concentrations of tested compounds and incubated for 48 h. MTT working solution of 20 µl (5 mg/ml) was then added to each well and incubated for another 4 h. At the end of incubation, the medium were carefully removed, and 200 µl of DMSO was added. The optical density at 490 and 630 nm was then measured with a microplate reader (Model 680, Bio-Rad). […] The IC50 values were calculated with Origin 7.5 software, and standard deviations of the IC50 values were obtained from at least three independent experiments.
# [16] = test system: HepG2 cells; experiment: Cell cycle assay (PI staining, flow cytometry); format: cell-based; details: 6 h; for HepG2 cells at the G2/M phase: control 21.24%; for HepG2 cell population at the G0/G1 phase: control 55.60%
# Procedure: Cells were then washed twice with cold phosphate-buffered saline (PBS) and fixed in 70% precooled ethanol at 4°C for 12 h. After the fixation, cells were washed again with PBS and stained with PI/RNase A for 30 min at room temperature and eventually subjected to flow cytometry (CytoFLEX, Beckman Coulter) for cell cycle distribution determination.
# [17] = test system: phosphorylated cdc2; experiment: Western blot in HepG2 cells; format: cell-based; details: 1 µM, 24 h, compared with SAHA
# Procedure: (§3) Protein sample concentrations were determined with Brandford assay. Thirty micrograms of each sample was subjected to sodium dodecyl sulfate–polyacrylamide gel electrophoresis (SDS-PAGE). After electrophoresis, proteins were transferred to polyvinylidene difluoride (PVDF) membrane (Millipore) and blocked with 5% fat-free dry milk in 1 × Tris-buffered saline (TBST) for 2 h at room temperature. Membranes were then probed with corresponding antibodies at 4°C overnight. Cleaved caspase-3 (#9661), caspase-3 (#9662), cleaved caspase-9 (#9505), caspase-9 (#9508), phospho-cdc2 (#4539), and cdc2 (#77055) antibodies were obtained from Cell Signaling Technology (Danvers, MA). Expression of human β-actin was detected with anti-β-actin antibody (Proteintech, Rosemont, IL) as a loading control. The membranes were then incubated with horseradish peroxidase (HRP)-conjugated secondary antibody (Santa Cruz, CA) and visualized with enhanced chemiluminescence (ECL)-detecting reagents (ComWin Biotech Co., Beijing, China).
# [18] = test system: cleaved caspase-9; experiment: Western blot in HepG2 cells; format: cell-based; details: 1 µM, 24 h, compared with SAHA
# Procedure: as §3
# [19] = test system: cleaved caspase-3; experiment: Western blot in HepG2 cells; format: cell-based; details: 1 µM, 24 h, compared with SAHA
# Procedure: as §3
# [20] = test system: HepG2 cells; experiment: Annexin V-FITC/PI apoptosis detection (flow cytometry); format: cell-based; details: 24 h, control 3.52%
# Procedure: Cells were then washed with PBS, collected, resuspended with binding buffer from the annexin V-FITC kit (Thermo Fisher Co., USA) and then added with 5 µl of annexin V-FITC and mixed gently. After 10 min of incubation, 1 µl of PI was added to each sample and mixed gently. After incubation at room temperature for another 20 min in the dark, cells were subjected to flow cytometry (CytoFLEX, Beckman Coulter).
# [21] = target: T3, HDAC6 (Homo sapiens, UniProt Q9UBN7); experiment: biochemical
# T3 construct: purchased BPS Bioscience
# Procedure: as §1
# [22] = target: T4, HDAC9 (Homo sapiens, UniProt Q9UKV0); experiment: biochemical
# T4 construct: purchased BPS Bioscience
# Procedure: as §1
# [23] = target: T5, HDAC3 (Homo sapiens, UniProt O15379); experiment: biochemical; details: n ≥ 2, SD <10% of the mean; read-out: Enzyme inhibitory activity IC50, HDAC3
# T5 construct: purchased BPS Bioscience
# Procedure: as §1
# [24] = target: T6, HDAC2 (Homo sapiens, UniProt Q92769); experiment: biochemical; details: n ≥ 2, SD <10% of the mean; read-out: Enzyme inhibitory activity IC50, HDAC2
# T6 construct: purchased BPS Bioscience
# Procedure: as §1
# [25] = target: T7, HDAC8 (Homo sapiens, UniProt Q9BY41); experiment: biochemical
# T7 construct: purchased BPS Bioscience
# Procedure: as §1
# [26] = target: T8, HDAC4 (Homo sapiens, UniProt P56524); experiment: biochemical
# T8 construct: purchased BPS Bioscience
# Procedure: as §1
# [27] = more potent than SAHA, ratio of IC50 values
# T1 sequence (Q13547 whole entry): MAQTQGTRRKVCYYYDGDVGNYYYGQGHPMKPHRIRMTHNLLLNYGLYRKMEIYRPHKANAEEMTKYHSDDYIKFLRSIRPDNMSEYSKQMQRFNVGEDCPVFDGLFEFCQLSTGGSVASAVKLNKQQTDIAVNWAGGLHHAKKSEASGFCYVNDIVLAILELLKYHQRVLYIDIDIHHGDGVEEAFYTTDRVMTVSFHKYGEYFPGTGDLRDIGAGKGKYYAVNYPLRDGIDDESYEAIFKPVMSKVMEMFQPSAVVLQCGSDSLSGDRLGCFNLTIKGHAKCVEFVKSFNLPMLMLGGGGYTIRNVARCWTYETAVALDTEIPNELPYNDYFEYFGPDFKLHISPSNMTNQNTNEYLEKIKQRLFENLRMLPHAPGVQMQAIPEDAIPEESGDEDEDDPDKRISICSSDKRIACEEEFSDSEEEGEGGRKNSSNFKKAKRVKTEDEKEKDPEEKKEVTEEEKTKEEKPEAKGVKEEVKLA
# T5 sequence (O15379 whole entry): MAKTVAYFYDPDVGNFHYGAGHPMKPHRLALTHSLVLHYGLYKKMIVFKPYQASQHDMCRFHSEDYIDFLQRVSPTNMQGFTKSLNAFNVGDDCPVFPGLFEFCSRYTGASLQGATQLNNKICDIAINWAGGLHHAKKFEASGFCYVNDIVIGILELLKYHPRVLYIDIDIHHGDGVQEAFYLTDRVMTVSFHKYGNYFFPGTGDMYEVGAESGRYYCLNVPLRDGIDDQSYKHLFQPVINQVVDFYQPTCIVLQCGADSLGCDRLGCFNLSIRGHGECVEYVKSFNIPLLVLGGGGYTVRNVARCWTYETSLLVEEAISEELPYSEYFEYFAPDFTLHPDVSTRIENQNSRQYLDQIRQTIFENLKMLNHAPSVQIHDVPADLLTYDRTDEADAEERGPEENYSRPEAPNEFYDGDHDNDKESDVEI
# T5 sequence (Q9Y618 395-489 partner limits assumed): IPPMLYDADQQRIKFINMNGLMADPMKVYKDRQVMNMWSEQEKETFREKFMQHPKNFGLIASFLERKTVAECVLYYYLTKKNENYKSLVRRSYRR
# T8 sequence (P56524 whole entry): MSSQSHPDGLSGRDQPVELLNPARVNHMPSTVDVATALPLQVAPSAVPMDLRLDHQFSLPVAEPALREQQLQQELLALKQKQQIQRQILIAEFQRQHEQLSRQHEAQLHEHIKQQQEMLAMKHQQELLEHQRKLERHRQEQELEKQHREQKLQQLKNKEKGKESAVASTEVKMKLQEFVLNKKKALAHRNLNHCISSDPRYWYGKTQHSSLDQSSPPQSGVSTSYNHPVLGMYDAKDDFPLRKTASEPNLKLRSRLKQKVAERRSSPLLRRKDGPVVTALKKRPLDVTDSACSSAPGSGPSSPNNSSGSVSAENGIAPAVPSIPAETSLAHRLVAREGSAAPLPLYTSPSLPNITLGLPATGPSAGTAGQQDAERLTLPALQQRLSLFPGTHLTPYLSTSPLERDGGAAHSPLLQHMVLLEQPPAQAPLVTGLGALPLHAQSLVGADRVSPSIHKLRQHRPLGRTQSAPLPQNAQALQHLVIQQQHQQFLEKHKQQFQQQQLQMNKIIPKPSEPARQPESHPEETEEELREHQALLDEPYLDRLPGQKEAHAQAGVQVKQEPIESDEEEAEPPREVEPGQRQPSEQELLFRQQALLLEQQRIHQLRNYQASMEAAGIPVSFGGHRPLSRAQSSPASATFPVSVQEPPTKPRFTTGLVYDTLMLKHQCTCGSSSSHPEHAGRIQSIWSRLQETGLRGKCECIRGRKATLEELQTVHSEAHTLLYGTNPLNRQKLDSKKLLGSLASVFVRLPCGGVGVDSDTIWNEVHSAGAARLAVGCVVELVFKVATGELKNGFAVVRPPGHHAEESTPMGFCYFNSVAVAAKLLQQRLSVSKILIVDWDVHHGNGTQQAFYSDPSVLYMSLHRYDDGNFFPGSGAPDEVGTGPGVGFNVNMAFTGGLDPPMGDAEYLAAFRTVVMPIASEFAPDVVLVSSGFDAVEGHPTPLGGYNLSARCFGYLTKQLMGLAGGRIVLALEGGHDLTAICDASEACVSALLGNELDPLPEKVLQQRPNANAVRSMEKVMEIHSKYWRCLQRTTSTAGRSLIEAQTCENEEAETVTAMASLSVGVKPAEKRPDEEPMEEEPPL
# T4 sequence (Q9UKV0 whole entry): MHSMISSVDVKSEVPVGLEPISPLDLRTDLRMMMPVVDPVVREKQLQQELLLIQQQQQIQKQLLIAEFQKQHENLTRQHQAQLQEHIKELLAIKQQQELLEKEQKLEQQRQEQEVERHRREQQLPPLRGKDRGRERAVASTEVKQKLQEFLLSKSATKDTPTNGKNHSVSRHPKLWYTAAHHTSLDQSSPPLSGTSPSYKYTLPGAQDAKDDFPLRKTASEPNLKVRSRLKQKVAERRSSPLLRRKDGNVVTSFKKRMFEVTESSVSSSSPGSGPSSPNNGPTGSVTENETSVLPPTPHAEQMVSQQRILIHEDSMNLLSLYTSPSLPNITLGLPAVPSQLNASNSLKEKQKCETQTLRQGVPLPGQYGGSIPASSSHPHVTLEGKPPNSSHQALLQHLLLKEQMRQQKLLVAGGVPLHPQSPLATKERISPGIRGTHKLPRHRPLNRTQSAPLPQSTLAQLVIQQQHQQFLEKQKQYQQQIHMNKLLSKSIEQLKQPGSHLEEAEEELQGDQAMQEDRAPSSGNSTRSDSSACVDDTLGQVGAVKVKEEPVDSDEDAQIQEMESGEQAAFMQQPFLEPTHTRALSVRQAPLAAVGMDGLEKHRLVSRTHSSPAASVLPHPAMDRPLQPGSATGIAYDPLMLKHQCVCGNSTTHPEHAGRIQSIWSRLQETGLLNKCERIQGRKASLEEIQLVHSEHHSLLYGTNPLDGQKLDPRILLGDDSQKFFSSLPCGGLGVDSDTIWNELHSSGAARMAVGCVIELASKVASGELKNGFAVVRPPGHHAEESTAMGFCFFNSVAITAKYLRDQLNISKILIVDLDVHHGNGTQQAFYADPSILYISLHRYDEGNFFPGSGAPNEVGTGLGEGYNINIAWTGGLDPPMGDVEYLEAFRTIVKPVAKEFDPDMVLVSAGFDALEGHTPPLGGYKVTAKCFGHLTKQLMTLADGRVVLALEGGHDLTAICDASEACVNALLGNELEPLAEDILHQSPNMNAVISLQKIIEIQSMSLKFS
# T7 sequence (Q9BY41 whole entry): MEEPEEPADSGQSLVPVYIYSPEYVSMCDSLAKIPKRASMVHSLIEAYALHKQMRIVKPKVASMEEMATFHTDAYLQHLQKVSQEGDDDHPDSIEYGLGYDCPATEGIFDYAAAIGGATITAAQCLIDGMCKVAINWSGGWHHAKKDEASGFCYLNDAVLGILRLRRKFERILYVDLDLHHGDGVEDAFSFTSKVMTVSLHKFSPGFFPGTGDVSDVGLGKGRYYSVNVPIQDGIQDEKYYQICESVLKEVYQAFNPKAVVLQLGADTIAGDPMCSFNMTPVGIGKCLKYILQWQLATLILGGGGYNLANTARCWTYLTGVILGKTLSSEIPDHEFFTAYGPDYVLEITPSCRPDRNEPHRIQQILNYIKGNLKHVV
# T6 sequence (Q92769 whole entry): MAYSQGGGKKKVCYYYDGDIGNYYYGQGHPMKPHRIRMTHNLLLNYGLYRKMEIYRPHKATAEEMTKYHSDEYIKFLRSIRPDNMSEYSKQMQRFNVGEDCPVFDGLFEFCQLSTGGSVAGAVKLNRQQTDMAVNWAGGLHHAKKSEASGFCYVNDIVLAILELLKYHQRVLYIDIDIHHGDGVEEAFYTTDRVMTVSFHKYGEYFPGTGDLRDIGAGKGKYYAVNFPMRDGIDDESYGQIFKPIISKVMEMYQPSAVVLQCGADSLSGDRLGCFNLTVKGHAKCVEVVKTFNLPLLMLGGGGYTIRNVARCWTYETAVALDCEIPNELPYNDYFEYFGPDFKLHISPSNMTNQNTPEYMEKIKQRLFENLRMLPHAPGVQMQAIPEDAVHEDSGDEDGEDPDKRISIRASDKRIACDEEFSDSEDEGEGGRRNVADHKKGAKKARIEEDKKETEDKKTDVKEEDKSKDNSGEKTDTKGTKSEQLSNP
# T2 sequence (Q8WUI4 whole entry): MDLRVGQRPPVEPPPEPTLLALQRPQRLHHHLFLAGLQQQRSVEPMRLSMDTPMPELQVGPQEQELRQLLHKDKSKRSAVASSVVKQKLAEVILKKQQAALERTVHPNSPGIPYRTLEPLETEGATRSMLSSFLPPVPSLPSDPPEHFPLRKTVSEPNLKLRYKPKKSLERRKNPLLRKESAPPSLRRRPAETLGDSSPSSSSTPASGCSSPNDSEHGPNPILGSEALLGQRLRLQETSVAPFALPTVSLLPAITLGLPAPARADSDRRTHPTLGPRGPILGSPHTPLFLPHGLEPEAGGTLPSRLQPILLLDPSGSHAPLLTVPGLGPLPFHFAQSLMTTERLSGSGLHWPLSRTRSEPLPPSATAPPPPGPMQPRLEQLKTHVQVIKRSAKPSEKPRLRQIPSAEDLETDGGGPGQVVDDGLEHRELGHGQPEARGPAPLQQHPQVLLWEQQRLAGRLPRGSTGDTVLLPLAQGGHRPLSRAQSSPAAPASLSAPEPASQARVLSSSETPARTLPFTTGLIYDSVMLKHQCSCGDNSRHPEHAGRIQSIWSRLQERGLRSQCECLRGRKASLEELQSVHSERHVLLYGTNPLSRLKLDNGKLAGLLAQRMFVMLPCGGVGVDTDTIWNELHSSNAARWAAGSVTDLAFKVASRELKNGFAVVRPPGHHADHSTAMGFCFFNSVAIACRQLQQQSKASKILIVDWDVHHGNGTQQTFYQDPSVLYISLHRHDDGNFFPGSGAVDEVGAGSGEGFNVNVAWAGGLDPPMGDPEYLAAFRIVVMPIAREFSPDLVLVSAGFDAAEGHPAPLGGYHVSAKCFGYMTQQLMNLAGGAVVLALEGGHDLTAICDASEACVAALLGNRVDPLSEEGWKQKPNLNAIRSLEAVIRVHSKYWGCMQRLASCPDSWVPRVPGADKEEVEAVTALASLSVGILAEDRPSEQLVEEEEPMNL
smiles,measurement,setting,value
"Nc1ccccc1NC(=O)c1ccc(N(CCCl)CCCl)cc1 [NA, N-(2-Aminophenyl)-4-(bis(2-chloroethyl)amino)benzamide]",IC50,"[1]; n ≥ 2, SD <10% of the mean, read-out: Enzyme inhibitory activity IC50, HDAC1",0.0952 µM
same,HDAC1 selectivity versus HDAC2,"[1]; ratio of IC50 values, HDAC1 versus HDAC2",2.74 fold
same,HDAC1 selectivity versus HDAC3,"[1]; ratio of IC50 values, HDAC1 versus HDAC3",2.69 fold
same,IC50,[2],> 5 µM
same,IC50,[3],6.33 µM
same,IC50,[4],33.8 µM
same,IC50,[5],8.52 µM
same,IC50,[6],1.21 µM
same,IC50,"[7]; Homo sapiens, HepG2, 48 h, read-out: Antiproliferative activity IC50, HepG2",1.73 µM
same,"Potency relative to SAHA, HepG2 cell growth inhibition",[7]; [27],11.3 fold
same,IC50,[8],10.4 µM
same,IC50,[9],7.64 µM
same,IC50,[10],5.81 µM
same,IC50,[11],14.3 µM
same,IC50,[12],3.91 µM
same,IC50,[13],14.7 µM
same,IC50,[14],18.7 µM
same,IC50,[15],2.66 µM
same,"Potency relative to SAHA, A2780 cell growth inhibition",[15]; [27],10.3 fold
same,HepG2 cells at the G2/M phase,[16]; 1 µM,25.98%
same,HepG2 cell population at the G0/G1 phase,[16]; 1 µM,48.64%
same,HepG2 cells at the G2/M phase,[16]; 3 µM,35.05%
same,HepG2 cell population at the G0/G1 phase,[16]; 3 µM,41.61%
same,HepG2 cells at the G2/M phase,[16]; 9 µM,38.89%
same,HepG2 cell population at the G0/G1 phase,[16]; 9 µM,37.19%
same,Phosphorylation of cdc2,[17],up-regulated
same,Protein expression level of cleaved caspase-9,[18],remarkedly increased
same,Protein expression level of cleaved caspase-3,[19],remarkedly increased
same,Percentage of apoptotic HepG2 cells,[20]; 1 µM,9.15%
same,Percentage of apoptotic HepG2 cells,[20]; 3 µM,18.07%
same,Percentage of apoptotic HepG2 cells,[20]; 9 µM,37.39%
same,IC50,[21],> 5 µM
same,IC50,[22],> 5 µM
same,IC50,[23],0.256 µM
same,IC50,[24],0.261 µM
same,IC50,[25],> 5 µM
same,IC50,[26],> 5 µM
"O=C(CCCCCCC(=O)Nc1ccccc1)NO [SAHA, Suberoylanilide hydroxamic acid, reference compound]",IC50,[15],27.3 µM
same,Effect on the population of HepG2 cells at the G0/G1 phase (in words),"[16]; 1, 3, and 9 µM",no significant effects
same,Percentage of apoptotic HepG2 cells,[20]; 1 µM,4.52%
same,Percentage of apoptotic HepG2 cells,[20]; 3 µM,6.24%
same,Percentage of apoptotic HepG2 cells,[20]; 9 µM,20.32%
